What was measured:
Ras farnesyl transferase [1] = molecular target: T1, Ras farnesyl transferase (Homo sapiens, UniProt P49354+P49356); assay: In vitro inhibitory activity for Ras farnesyl transferase, H-Ras substrate; format: biochemical; details: recombinant farnesyl transferase 4.5 nM, Ras substrate protein 1.5 μM, tritium-farnesylpyrophosphate 0.15 μM, 30 minutes at 37° C.; read-out: H-Ras IC50
T1 construct: made in house

Ras farnesyl transferase [2] = molecular target: T2, Ras farnesyl transferase (Rattus norvegicus, UniProt Q02293+Q04631); assay: In vivo (cellular) inhibitory activity for Ras farnesyl transferase, Rat2 cell line transformed with fused protein of H-Ras substituted with polybasic lysine domain at C-terminus of K-Ras; format: cell-based; details: Rat2 cell line transformed with H-Ras fused with polybasic lysine domain of K-Ras C-terminus; concentration inhibiting 50% of farnesyl bonding; read-out: K-Ras CIC50
T2 construct: endogenous in cells; host or cells: Rat2 fibroblasts transformed with H-Ras or with an H-Ras/K-Ras C-terminus fusion
Procedure, shortened: (§1)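 Farnesylated versus unfarnesylated Ras bands were measured by autoradiography after Y13-259 immunoprecipitation and SDS-PAGE, giving CIC50 as 50% inhibition of farnesylation. Rat2 cells expressing H-Ras or an H-Ras fusion with K-Ras polybasic C-terminus got compound (1% DMSO), then [35S]methionine from 4 h onward for 20 h.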

Ras farnesyl transferase [3] = molecular target: T1, Ras farnesyl transferase; assay: In vitro inhibitory activity for Ras farnesyl transferase, K-Ras substrate; format: biochemical; details: in vitro farnesyl transferase assay, K-Ras; read-out: K-Ras IC50
Ras farnesyl transferase [4] = molecular target: T2, Ras farnesyl transferase; assay: In vivo (cellular) inhibitory activity for Ras farnesyl transferase, Rat2 cell line which expresses C-Harvey-Ras protein; format: cell-based; details: Rat2 cell line expressing C-Harvey-Ras; concentration inhibiting 50% of farnesyl bonding of Ras protein; read-out: H-Ras CIC50
Procedure, shortened: as §1

IC50 (Ras farnesyl transferase [1]) [µM] | IC50 (Ras farnesyl transferase [2]) [µM] | IC50 (Ras farnesyl transferase [3]) [µM] | IC50 (Ras farnesyl transferase [4]) [µM] | SMILES
0.002 | 10 to 20 | 0.005 | 0.012 | COCCN(C)C(=O)c1cn(Cc2cncn2CCc2cccc3ccccc23)cc1-c1cccc2ccccc12 [Compound 31, 3-[N-(2-Methoxyethyl)-N-methyl]carbamoyl-4-(naphthalen-yl)-1-{1-[2-(naphthalen-1-yl)ethyl]-1H-imidazol-5-yl}methyl-1H-pyrrole]
0.002 | 10 to 50 | 0.003 | 0.015 | CN1CCN(C(=O)c2cn(Cc3cncn3CCc3cccc4ccccc34)cc2-c2cccc3ccccc23)CC1 [Compound 32, 3-[4-Methylpiperazin-1-yl]carbonyl-4-(naphthalen-1-yl)-1-{1-[2-(naphthalen-1-yl)ethyl]-1H-imidazol-5-yl}methyl-1H-pyrrole]
0.002 | 10 to 50 | 0.003 | 0.018 | COCCN(C)C(=O)c1cn(Cc2cncn2CCc2ccc(Br)cc2)cc1-c1cccc2ccccc12 [Compound 33, 1-[1-(4-Bromo)phenethyl-1H-imidazol-5-yl]methyl-3-[N-(2-methoxyethyl)-N-methyl]carbamoyl-4-(naphthalen-1-yl)-1H-pyrrole]
0.002 | 10 to 50 | 0.003 | 0.02 | CN1CCN(C(=O)c2cn(Cc3cncn3CCc3ccc(Br)cc3)cc2-c2cccc3ccccc23)CC1 [Compound 34, 1-[1-(4-Bromo)phenethyl-1H-imidazol-5-yl]methyl-3-[4-methylpiperazin-1-yl]carbonyl-4-(naphthalen-1-yl)-1H-pyrrole]
0.001 | 10 to 50 | 0.002 | 0.025 | COCCN(C)C(=O)c1cn(Cc2cncn2CCc2ccc(F)cc2)cc1-c1cccc2ccccc12 [Compound 35, 1-[1-(4-Fluoro)phenethyl-1H-imidazol-5-yl]methyl-3-[N-(2-methoxyethyl)-N-methyl]carbamoyl-4-(naphthalen-1-yl)-1H-pyrrole]
0.001 | 10 to 50 | 0.002 | 0.025 | CN1CCN(C(=O)c2cn(Cc3cncn3CCc3ccc(F)cc3)cc2-c2cccc3ccccc23)CC1 [Compound 36, 1-[1-(4-Fluoro)phenethyl-1H-imidazol-5-yl]methyl-3-[4-methylpiperazin-1-yl]carbonyl-4-(naphthalen-1-yl)-1H-pyrrole]
0.002 | 10 to 50 | 0.003 | 0.025 | COCCN(C)C(=O)c1cn(Cc2cncn2CCc2ccc(C)cc2)cc1-c1cccc2ccccc12 [Compound 37, 3-[N-(2-Methoxyethyl)-N-methyl]carbamoyl-1-[1-(4-methyl)phenethyl-1H-imidazol-5-yl]methyl-4-(naphthalen-1-yl)-1H-pyrrole]
0.002 | 10 to 50 | 0.004 | 0.025 | Cc1ccc(CCn2cncc2Cn2cc(C(=O)N3CCN(C)CC3)c(-c3cccc4ccccc34)c2)cc1 [Compound 38, 1-[1-(4-Methyl)phenethyl-1H-imidazol-5-yl]methyl-3-[4-methylpiperazin-1-yl]carbonyl-4-(naphthalen-1-yl)-1H-pyrrole]
0.002 | 10 to 50 | 0.003 | 0.02 | COCCN(C)C(=O)c1cn(Cc2cncn2CCc2ccc(Cl)cc2)cc1-c1cccc2ccccc12 [Compound 39, 1-[1-(4-Chloro)phenethyl-1H-imidazol-5-yl]methyl-3[N-(2-methoxyethyl)-N-methyl]carbamoyl-4-(naphthalen-1-yl)-1H-pyrrole]
0.002 | 10 to 50 | 0.003 | 0.025 | CN1CCN(C(=O)c2cn(Cc3cncn3CCc3ccc(Cl)cc3)cc2-c2cccc3ccccc23)CC1 [Compound 40]
0.003 | 10 to 50 | 0.004 | 0.015 | COCCN(C)C(=O)c1cn(Cc2cncn2CCc2ccc3ccccc3c2)cc1-c1cccc2ccccc12 [Compound 41, 3-[N-(2-Methoxyethyl)-N-methyl]carbamoyl-4-(naphthalen-1-yl)-1-{1-[2-(naphthalen-2-yl)ethyl]-1H-imidazol-5-yl}methyl-1H-pyrrole]
0.004 | 10 to 50 | 0.003 | 0.015 | CN1CCN(C(=O)c2cn(Cc3cncn3CCc3ccc4ccccc4c3)cc2-c2cccc3ccccc23)CC1 [Compound 42, 3-[4-Methylpiperazin-1-yl]carbonyl-4-(naphthalen-1-yl)-1-{1-[2-(naphthalen-2-yl)ethyl]-1H-imidazol-5-yl}methyl-1H-pyrrole]
0.001 | 5 to 10 | 0.002 | 0.015 | CN1CCN(C(=O)c2cn(Cc3cncn3CCc3ccc(O)cc3)cc2-c2cccc3ccccc23)CC1 [Compound 43, 1-[1-(4-Hydroxy)phenethyl-1H-imidazol-5-yl]methyl-3-[4-mmethylpiperazin-1-yl]carbonyl-4-(naphthalen-1-yl)-1H-pyrrole]
0.25 | 10 to 100 | 0.1 to 10 | 1 to 50 | O=C(c1cccs1)c1cn(Cc2c[nH]cn2)cc1-c1cccc2ccccc12 [Compound 44, 1-(1H-Imidazol-4-yl)methyl-4-(naphthalen-1-yl)-3-(thiophen-2-yl)carbonyl-1H-pyrrole]
0.13 | 10 to 100 | 0.1 to 10 | 1 to 50 | O=C(c1ccsc1)c1cn(Cc2c[nH]cn2)cc1-c1cccc2ccccc12 [Compound 45]
0.12 | 10 to 100 | 0.1 to 10 | 1 to 50 | O=C(c1ccccc1)c1cn(Cc2c[nH]cn2)cc1-c1cccc2ccccc12 [Compound 46]
0.09 | 10 to 100 | 0.1 to 10 | 1 to 50 | O=C(c1ccccc1Br)c1cn(Cc2c[nH]cn2)cc1-c1cccc2ccccc12 [Compound 47]
0.15 | 10 to 100 | 10 | 1 to 50 | O=C(c1cccc(Br)c1)c1cn(Cc2c[nH]cn2)cc1-c1cccc2ccccc12 [Compound 48]
0.03 | < 20 | 0.485 | 0.7 | O=C(c1ccc(Br)cc1)c1cn(Cc2c[nH]cn2)cc1-c1cccc2ccccc12 [Compound 49]
0.15 | 10 to 100 | 0.1 to 10 | 1 to 50 | Cc1ccccc1C(=O)c1cn(Cc2c[nH]cn2)cc1-c1cccc2ccccc12 [Compound 50]
0.27 | 10 to 100 | 0.1 to 10 | 1 to 50 | Cc1cccc(C(=O)c2cn(Cc3c[nH]cn3)cc2-c2cccc3ccccc23)c1 [Compound 51]
0.07 | 10 to 100 | 0.1 to 10 | 1 to 50 | Cc1ccc(C(=O)c2cn(Cc3c[nH]cn3)cc2-c2cccc3ccccc23)cc1 [Compound 52]
0.3 | 10 to 100 | 0.1 to 10 | 1 to 50 | COc1cccc(C(=O)c2cn(Cc3c[nH]cn3)cc2-c2cccc3ccccc23)c1 [Compound 53]
0.39 | 10 to 100 | 0.1 to 10 | 1 to 50 | COc1ccc(C(=O)c2cn(Cc3c[nH]cn3)cc2-c2cccc3ccccc23)cc1 [Compound 54]
0.06 | 10 to 100 | 0.1 to 10 | 1 to 50 | O=C(c1ccccc1Cl)c1cn(Cc2c[nH]cn2)cc1-c1cccc2ccccc12 [Compound 55]

— patent publication US6472526B1, “Imidazole derivatives having an inhibitory activity for farnesyl transferase and process for preparation thereof” (LG Chemical Ltd., priority 1997, dated 2002)
